Source: EP1310258A1, “Enantiomers of steroids for the enhancement of memory and cognitive function” (Baulieu, Etienne-Emile, priority 2001, dated 2003)
Structures can show the parent of a compound that is named as a salt.

Experiments:
NMDA receptor [1] = test: Coadministration of steroids with the NMDA receptor antagonist AP5, Y-maze recognition performance, rats; format: in vivo; conditions: for memory performances when coadministered with AP5 compared to the group treated with the steroid alone: AP5 10 nmol ICV together with PREGS 0.5 nmol or ent-PREGS 0.05 nmol; for recognition performances of steroid alone compared with vehicle-controls: ICV effective doses alone (PREGS 0.5 nmol, ent-PREGS 0.05 nmol), P < 0.05
Protocol: (§1) The two-trial memory task based on spontaneous exploration of novelty was adapted from the ones described by Dellu et al. (1992, Brain Res., 588, 132-9) in rats and by Ladurelle et al. (2000, Brain Res., 858, 371-9) in mice.
(§2) Experiments were performed in a gray polyvinychloride Y-maze. The size of each arm was 40 cm long, 15 cm wide and 35 cm high for rats, and 30 cm long, 10 cm wide and 17 cm high for mice. The floor of the maze was covered with odor-saturated sawdust which was mixed after each trial. The maze was placed in a sound-attenuated room under dim illumination. Numerous visual cues were placed on the walls of the testing room and kept constant during the entire behavioral testing..
(§3) The test consisted of two trials, separated by a 6-h intertrial interval. During the first trial (acquisition phase), one arm of the Y-maze (subsequently called novel arm) was closed with a guillotine door, thus allowing the animal to explore only the other two arms, during 5 min and 3 min for rats and mice, respectively. During the second trial (retention phase), the animals had access to the three arms for 5 min. The time spent in each arm of the maze was recorded manually every minute. Recognition was assumed to have occurred when the animal spent more time in the novel arm compared with the familiar ones. The total number of arm visits provided a measure of general motor activity.
(§4) A between-subjects design was used where each observation was made for a separate animal. Data were reported as the amount of time spent in the novel arm relative to the total duration of visits in the three arms (novel/total x 100) during the first 3 min.
(§5) They were expressed as mean ± SEM and analyzed by using one-way ANOVA followed by Newmann-Keuls posthoc test. Significance was defined as P<0.05 or P<0.01.
(§6) The effects of the ICV injection of AP5, at ICV doses of 2 and 10 nmol in mice and rats, respectively, was studied on the memory-enhancing effects of PREGS (0.5 nmol in rats and 5.0 nmol in mice) and ent-PREGS (0.05 nmol in rats and 5.0 nmol in mice).

NMDA receptor [2] = test: Coadministration of steroids with the NMDA receptor antagonist AP5, Y-maze recognition performance, mice; format: in vivo; conditions: for memory performances when coadministered with AP5 compared to the group treated with the steroid alone: AP5 2 nmol ICV together with PREGS 5.0 nmol or ent-PREGS 5.0 nmol (so in the source); for recognition performances of steroid alone compared with vehicle-controls: ICV effective doses alone (PREGS 5.0 nmol, ent-PREGS 5.0 nmol as printed), P < 0.05
Protocol: as §1, §2, §3, §4, §5, §6

steroid sulfatase [3] = molecular target: T1, steroid sulfatase (Rattus norvegicus, UniProt P15589); test: In vitro metabolism: steroid sulfatase activity by rat liver microsomes; format: in vitro ADME; parameters: 200 µg microsomal proteins prepared from rat brain or liver; from tissue; host or cells: rat liver microsomes; conditions: 37°C, 1 hour; for formation of DHEA (metabolism by sulfatase) / formation of PREG (metabolism by sulfatase): 8 µg steroid with 200 µg rat liver microsomal proteins
T1 sequence (P15589 20-577): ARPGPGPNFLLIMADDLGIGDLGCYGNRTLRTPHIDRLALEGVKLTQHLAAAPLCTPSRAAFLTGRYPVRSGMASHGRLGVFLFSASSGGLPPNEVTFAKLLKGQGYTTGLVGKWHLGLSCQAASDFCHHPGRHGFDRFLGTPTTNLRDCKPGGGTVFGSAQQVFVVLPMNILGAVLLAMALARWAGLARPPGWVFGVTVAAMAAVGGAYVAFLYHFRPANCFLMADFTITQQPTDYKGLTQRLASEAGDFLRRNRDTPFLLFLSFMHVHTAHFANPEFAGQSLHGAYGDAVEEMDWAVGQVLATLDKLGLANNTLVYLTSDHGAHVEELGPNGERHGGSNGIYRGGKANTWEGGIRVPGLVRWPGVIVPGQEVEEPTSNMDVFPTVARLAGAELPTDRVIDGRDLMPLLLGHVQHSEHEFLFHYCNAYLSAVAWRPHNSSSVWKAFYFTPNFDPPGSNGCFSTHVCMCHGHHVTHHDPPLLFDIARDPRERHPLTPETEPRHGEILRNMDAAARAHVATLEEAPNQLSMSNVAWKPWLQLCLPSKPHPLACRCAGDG
Protocol: (§7) The metabolism of PREGS and ent-PREGS was examined after incubation of 8 µg of each steroid with 200 µg microsomal proteins prepared from rat brain or liver, at 37°C for lhour, and the unconjugated PREG was quantified in the brain by gas-chromatography-mass spectrometry (Liere et al., 2000, J. Chromatogr. B Biomed. Sci. Appl. 2000,739:301-12)
as §7, with “DHEAS” for “PREGS”, “ent-DHEAS” for “ent-PREGS”, “1hour,” for “lhour,”, “DHEA” for “PREG”

steroid sulfatase [4] = molecular target: T1, steroid sulfatase; test: In vitro metabolism: steroid sulfatase activity by rat brain microsomes; format: in vitro ADME; parameters: 200 µg microsomal proteins prepared from rat brain or liver; from tissue; host or cells: rat liver microsomes; conditions: 8 µg steroid with 200 µg rat brain microsomal proteins, 37°C, 1 hour
Protocol: as §7
as §7, with “DHEAS” for “PREGS”, “ent-DHEAS” for “ent-PREGS”, “1hour,” for “lhour,”, “DHEA” for “PREG”

Male Sprague-Dawley rats = test: Two-trial memory task (spatial recognition) in a Y-maze after ICV administration, rats; format: in vivo; conditions: ICV immediately after acquisition, 6-h intertrial interval, Newman-Keuls P<0.05
Protocol: (§8) Male Sprague-Dawley rats and Swiss mice (Janvier, Le Genest St-Isle, France) 2 months of age and weighing 250-300g for rats and 30-32g for mice at the time of surgery were used. They were grouped-housed in a temperature (22°C ± 1°C) and humidity (50% ± 5%) controlled room. They were maintained on a 12-h light/12-h dark (08.00-20.00) schedule and had access to food and water ad libitum.
(§9) Rats were anaesthesized with a mixture of 5% ketamine (Imalgène 1000, Merial, France) and 0.1% acepromazine (Vetranquil 1%,) in saline, administered i.p. at 1.5 ml/kg. Mice were anesthetized with a mixture of 0.5% ketamine and 0.1% xylazine, under the volume of 15 ml/kg.
(§10) Animals were mounted in a stereotaxic and implanted with unilateral stainless steel cannula guides (23-gauge, 7 mm long) above the lateral ventricle, according to the coordinates from the atlas of rats and mice. Cannulas were secured to the skull with stainless steel screws and dental cement.
Animals were used for experiments after a 7-day postrecovery period. Each animal was handled daily for 3 days before the experiments and on the day before each experiment, cannula function was confirmed by gravity flow of isotonic saline.
PREGS was obtained from Steraloïds (Newport, RI, Etats-Unis); the steroid enantiomers ent-SPREG et ent-SDHEA were synthesized as previously described (Nilsson et al., 1998, op. cit.). All compounds were dissolved in […] (vehicle)
PREGS was administered iCV at doses of 0 (vehicle), 0.05, 0.25, 0.5, 2.5, 5.0 and 12.5 nmol in rats and of 0 (vehicle), 0.05, 0.25, 0.5, 2.5, 5.0 and 12.5 nmol mice
ent-PREGS was injected ICV at doses of 0 (vehicle), 0.025, 0.05, 0.25, 0.5 nmol in rats and 0 (vehicle), 0.025, 0.05, 0.25, 0.5 and 2.5 nmol in mice.
ent-SDHEA was administered iCV at doses of 0; 0,25; 0,25 nmol in rats.
Drug and control-vehicle solutions were injected unilaterally through the cannula guide. […]
(§11) The test consisted of two trials, separated by a 6-h intertrial interval. […] The time spent in each arm of the maze was recorded manually every minute. […]

Swiss mice = test: Two-trial memory task (spatial recognition) in a Y-maze after ICV administration, mice; format: in vivo; conditions: ICV immediately after acquisition, 6-h intertrial interval, Newman-Keuls (PREGS P<0.05; ent-PREGS P<0.01)
Protocol: as §8, §9, §10
Animals were used for experiments after a 7-day postrecovery period. Each animal was handled daily for 3 days before the experiments and on the day before each experiment, cannula function was confirmed by gravity flow of isotonic saline. […]
as §11

steroid sulfatase [5] = molecular target: T1, steroid sulfatase; test: In vivo metabolism in rat brain: steroid sulfatase activity (GC-MS of unconjugated PREG); conditions: 5 min after ICV administration of 1µg
Protocol: The metabolism of PREGS and ent-PREGS was investigated 5 min after ICV administration of 1µg of each compound in rat and the unconjugated PREG was quantified in the brain by gas-chromatography-mass spectrometry (Liere et al., 2000, J. Chromatogr. B Biomed Sci. Appl. 2000,739:301-12).

[6] = rat liver versus brain microsomes, 8 µg steroid, 200 µg protein

Row | SMILES | recognition performance of AP5-treated group versus vehicle-control (NMDA receptor [1]; AP5 alone 10 nmol ICV, P > 0.05) | recognition performance of AP5-treated group versus vehicle-control (NMDA receptor [2]; AP5 alone 2 nmol ICV, P > 0.05) | formation of DHEA (metabolism by sulfatase) (steroid sulfatase [3]) | levels of DHEA in the liver relative to the brain (steroid sulfatase [3]; [6]) [times] | formation of DHEA (metabolism by sulfatase) (steroid sulfatase [4]) | memory performances when coadministered with AP5 compared to the group treated with the steroid alone (NMDA receptor [1]) | recognition performances of steroid alone compared with vehicle-controls (NMDA receptor [1]) | memory performances when coadministered with AP5 compared to the group treated with the steroid alone (NMDA receptor [2]) | recognition performances of steroid alone compared with vehicle-controls (NMDA receptor [2]) | dose at which % time spent in the novel arm / memory performance was significantly increased relative to vehicle-control (Male Sprague-Dawley rats) | dose at which % time spent in the novel arm / memory performance was significantly increased relative to vehicle-control (Swiss mice) [nmol] | brain content of PREG compared with saline-injected control rats (steroid sulfatase [5]) | formation of PREG (metabolism by sulfatase) (steroid sulfatase [3]) | levels of PREG in the liver relative to the brain (steroid sulfatase [3]; [6]) [times] | formation of PREG (metabolism by sulfatase) (steroid sulfatase [4])
1 | NC(CCCP(=O)(O)O)C(=O)O (stereo not drawn) [AP5] | did not significantly differ | did not significantly differ |  |  |  |  |  |  |  |  |  |  |  |  | 
2 | C[C@]12CC[C@H](OS(=O)(=O)O)CC1=CC[C@@H]1[C@@H]2CC[C@]2(C)C(=O)CC[C@@H]12 [DHEAS, dehydroepiandrosterone sulfate] |  |  | metabolized into DHEA | 5 | metabolized into DHEA |  |  |  |  |  |  |  |  |  | 
3 | CC(=O)C1CCC2C3CC=C4CC(OS(=O)(=O)O)CCC4(C)C3CCC12C (stereo not drawn) [PREGS, pregnenolone sulfate] |  |  |  |  |  | significantly reduced | significantly increased | significantly reduced | significantly increased | 0.5 nmol | 5.0 | signicantly increased | metabolized into PREG | 4 | metabolized into PREG
4 | C[C@@]12CC[C@@H]3[C@H](CC=C4C[C@H](OS(=O)(=O)O)CC[C@]43C)[C@H]1CCC2=O [ent-DHEAS] |  |  | undectectable |  | undectectable |  |  |  |  | 0,025 nmol |  |  |  |  | 
5 | CC(=O)[C@@H]1CC[C@@H]2[C@H]3CC=C4C[C@H](OS(=O)(=O)O)CC[C@@]4(C)[C@@H]3CC[C@]21C [ent-PREGS] |  |  |  |  |  | did not perform differently | significantly increased | did not perform differently | significantly increased | 0.05 nmol | 0.5 | did not significantly differ | undectectable |  | undectectable
